Results taken from ChEMBL document CHEMBL1149172, “BREED: Generating novel inhibitors through hybridization of known ligands. Application to CDK2, p38, and HIV protease” (J Med Chem, 2004).

Biological target: Human immunodeficiency virus type 1 protease (Human immunodeficiency virus 1, UniProt Q72874)
Assay: Inhibitory activity against HIV-I protease was determined

| SMILES | Ki [nM] |
| --- | --- |
| CC(C)CN(C[C@@H](O)[C@H](Cc1ccccc1)NC(=O)[C@H](CC(N)=O)NC(=O)c1ccc2ccccc2n1)S(=O)(=O)N1ONc2ccccc21 | 0.1 |
| CC(C)CN(C[C@@H](O)[C@H](Cc1ccccc1)NC(=O)O[C@H]1CCOC1)S(=O)(=O)NC(C)(C)C | 42 |
